Laboratory results published in patent US10385031B2, “Substituted piperazines as selective HDAC1,2 inhibitors” (Regenacy Pharmaceuticals, LLC, priority 2016, dated 2019).

Experiments:
hERG = hERG (Homo sapiens (Human), UniProt Q12809); experiment: hERG inhibition, whole-cell patch clamp; format: cell-based; details: HEK293 cells stably transfected with hERG
Protocol: For hERG inhibition assays, the cells used were HEK293 cells stably transfected with hERG (cell line obtained from Cytocentrics Inc. 3463 Magic Drive San Antonio, Tex. 78229). Composition of External Solution: NaCl, 137 mM; KCl, 4 mM; MgCl2, 1.0 mM; CaCl2, 1.8 mM; HEPES 10 mM; Dextrose 11 mM; Adjusted to a pH of 7.4 with NaOH. Composition of Internal Solution: KCl, 130.0 mM; MgCl2, 1.0 mM; HEPES, 5.0 mM; EGTA, 5.0 mM; NaCl 7.0 mM. Adjusted to a pH of 7.2 using KOH. Test Concentrations: 0.1, 1, 10, 100 μM. Vehicle: DMSO. Experiments were performed at 34+/−1° C. Current was recorded using the whole-cell patch clamp technique on the Cytopatch automated platform. hERG current was elicited with the following voltage protocol: hERG current amplitude was measured as the peak current at −50 mV (tail current). […] Each cell served as its own control. Data are presented as the IC50 calculated by non-linear regression analysis.

[1] = test system: CYP1A2, CYP2C9, CYP2C19, CYP3A4, CYP2D6; experiment: Cyp inhibition in human liver microsomes (all isozymes); format: in vitro ADME
Protocol: For Cyp inhibition, human liver microsomes from BD Gentest were incubated with Compound 028 or Compound 032 (10, 3.33, 1.11, 0.37, 0.12, 0.04, 0.01 μM) and substrate (CYP1A2: Phenacetin at 30 μM; CYP2C9: Diclofenac at 10 μM; CYP2C19: S-Mephenytoin at 35 μM; CYP3A4: Midazolam at 5 μM and Testosterone at 80 μM; CYP2D6: Bufuralol at 10 μM) for the following incubation times: CYP1A2, 2C9, 2D6: 10 minutes, 37° C.; CYP2C19: 45 minutes, 37° C.; CYP3A4: 5 minutes, 37° C. Substrate conversion was measured by liquid chromatography/mass spectrometry/mass spectrometry (LC/MS/MS). Inhibition was calculated by curve fitting in Graph Pad Prism.

[2] = Rat pharmacokinetics, cassette dosing (IV and PO); format: in vivo; details: male SD rats; for bioavailability / IV clearance / AUC / Cmax / half-life: rat; for bioavailability: 5 mg/kg; for half-life: read-out: PO T½ (converted)
Protocol: Male SD rats were fasted overnight. Compounds of the invention were dissolved in dimethyl acetamide at 10 times the final concentration, then Solutol HS 15 (BASF) was added to a final concentration of 10%. Finally 80% saline was added and vortexed to achieve a clear solution. For the IV dosing three animals were injected via the foot dorsal vein with 1 mg/kg compound. For the PO dosing 5 mg/kg of compound was delivered by oral gavage. Blood was collected via the tail vein into K2EDTA tubes at 5 minutes, 15 minutes, 30 minutes, 1 hour, 2 hours, 4 hours, 8 hours and 24 hours after dosing. The blood was centrifuged at 2000 g for 5 minutes at 4° C. to obtain plasma. The plasma was extracted with acetonitrile and the level of compound was analyzed by LC/MS/MS. The level of compound in plasma was calculated from a standard curve in rat plasma. The IV clearance (L/h/kg) and area under the curve (h*ng/mL) were calculated using WinNonLin software. The dose adjusted area under the curve for the IV and oral dosing were used to calculate the oral bioavailability.
Pharmacokinetic properties were assessed in a rat cassette dosing experiment. The IV clearance (IV Clr.) is in units of L/hr/kg. The oral maximum plasma concentration (PO Cmax) is in units of ng/ml. The oral plasma half-life (PO T½) is in units of hours. The oral area under the curve (PO AUC) is in units of hours*ng/ml. The fraction absorbed by the oral route (F %) is a percentage of the oral area under the curve to the IV area under the curve, dose adjusted.

HDAC3 = HDAC3 (Homo sapiens (Human), UniProt O15379); experiment: HDAC enzyme assay HDAC3; format: biochemical
Sequence of HDAC3 (O15379 whole entry): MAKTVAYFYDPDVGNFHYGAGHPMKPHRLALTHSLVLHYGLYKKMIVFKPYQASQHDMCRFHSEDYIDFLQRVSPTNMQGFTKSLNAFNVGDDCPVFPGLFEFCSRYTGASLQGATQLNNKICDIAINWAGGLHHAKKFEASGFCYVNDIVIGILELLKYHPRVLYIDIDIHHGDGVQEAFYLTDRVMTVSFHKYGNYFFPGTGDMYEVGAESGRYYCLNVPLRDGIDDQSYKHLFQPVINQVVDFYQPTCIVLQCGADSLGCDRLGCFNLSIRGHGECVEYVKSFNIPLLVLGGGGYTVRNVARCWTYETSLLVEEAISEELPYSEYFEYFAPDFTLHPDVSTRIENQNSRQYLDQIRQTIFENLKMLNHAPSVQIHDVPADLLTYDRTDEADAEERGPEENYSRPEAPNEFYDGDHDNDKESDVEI
Sequence of HDAC3 (Q9Y618 395-489 partner): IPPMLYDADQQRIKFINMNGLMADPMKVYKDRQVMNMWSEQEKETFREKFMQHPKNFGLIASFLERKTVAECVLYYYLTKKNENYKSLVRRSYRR
Protocol: Compounds for testing were diluted in DMSO to 50 fold the final concentration and a ten-point three-fold dilution series was made. The compounds were diluted in assay buffer (50 mM HEPES, pH 7.4, 100 mM KCl, 0.001% Tween-20, 0.05% BSA, 20 μM TCEP) to 6-fold their final concentration. The HDAC enzymes (purchased from BPS Biosciences) were diluted to 1.5-fold their final concentration in assay buffer. The tripeptide substrate and trypsin at 0.05 μM final concentration were diluted in assay buffer at 6-fold their final concentration. The final enzyme concentrations used in these assays were 3.3 ng/ml (HDAC1), 0.2 ng/ml (HDAC2) and 0.08 ng/ml (HDAC3). The final substrate concentrations used were 16 μM (HDAC1), 10 μM (HDAC2) and 17 μM (HDAC3). Five μl of compounds and 20 μl of enzyme were added to wells of a black, opaque 384 well plate in duplicate. Enzyme and compound were incubated together at room temperature for 10 minutes. Five μl of substrate was added to each well, the plate was shaken for 60 seconds and placed into a Victor 2 microtiter plate reader. The development of fluorescence was monitored for 60 min and the linear rate of the reaction was calculated. The IC50 was determined using Graph Pad Prism by a four parameter curve fit. In Table 4 below, letter designations are defined as follows: […]

HDAC2 = HDAC2 (Homo sapiens (Human), UniProt Q92769); experiment: HDAC enzyme assay HDAC2; format: biochemical
Sequence of HDAC2 (Q92769 whole entry): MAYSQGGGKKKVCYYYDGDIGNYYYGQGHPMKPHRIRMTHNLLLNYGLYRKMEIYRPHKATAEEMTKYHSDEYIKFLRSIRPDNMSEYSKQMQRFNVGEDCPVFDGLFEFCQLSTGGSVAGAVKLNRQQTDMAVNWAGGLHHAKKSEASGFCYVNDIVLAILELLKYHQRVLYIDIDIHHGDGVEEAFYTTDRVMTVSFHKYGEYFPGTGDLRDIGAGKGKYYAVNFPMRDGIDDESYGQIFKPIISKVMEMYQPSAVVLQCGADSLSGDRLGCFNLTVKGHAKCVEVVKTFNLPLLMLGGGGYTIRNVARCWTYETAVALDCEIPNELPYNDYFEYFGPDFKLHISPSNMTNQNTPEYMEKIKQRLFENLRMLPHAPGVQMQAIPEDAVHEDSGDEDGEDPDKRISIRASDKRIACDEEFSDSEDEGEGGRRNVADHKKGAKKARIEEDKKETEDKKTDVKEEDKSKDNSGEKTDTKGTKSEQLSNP
Protocol: Compounds for testing were diluted in DMSO to 50 fold the final concentration and a ten-point three-fold dilution series was made. The compounds were diluted in assay buffer (50 mM HEPES, pH 7.4, 100 mM KCl, 0.001% Tween-20, 0.05% BSA, 20 μM TCEP) to 6-fold their final concentration. The HDAC enzymes (purchased from BPS Biosciences) were diluted to 1.5-fold their final concentration in assay buffer. The tripeptide substrate and trypsin at 0.05 μM final concentration were diluted in assay buffer at 6-fold their final concentration. The final enzyme concentrations used in these assays were 3.3 ng/ml (HDAC1), 0.2 ng/ml (HDAC2) and 0.08 ng/ml (HDAC3). The final substrate concentrations used were 16 μM (HDAC1), 10 μM (HDAC2) and 17 μM (HDAC3).
Five μl of compounds and 20 μl of enzyme were added to wells of a black, opaque 384 well plate in duplicate. Enzyme and compound were incubated together at room temperature for 10 minutes. Five μl of substrate was added to each well, the plate was shaken for 60 seconds and placed into a Victor 2 microtiter plate reader. The development of fluorescence was monitored for 60 min and the linear rate of the reaction was calculated. The IC50 was determined using Graph Pad Prism by a four parameter curve fit.

HDAC1 = HDAC1 (Homo sapiens (Human), UniProt Q13547); experiment: HDAC enzyme assay HDAC1; format: biochemical
Sequence of HDAC1 (Q13547 whole entry): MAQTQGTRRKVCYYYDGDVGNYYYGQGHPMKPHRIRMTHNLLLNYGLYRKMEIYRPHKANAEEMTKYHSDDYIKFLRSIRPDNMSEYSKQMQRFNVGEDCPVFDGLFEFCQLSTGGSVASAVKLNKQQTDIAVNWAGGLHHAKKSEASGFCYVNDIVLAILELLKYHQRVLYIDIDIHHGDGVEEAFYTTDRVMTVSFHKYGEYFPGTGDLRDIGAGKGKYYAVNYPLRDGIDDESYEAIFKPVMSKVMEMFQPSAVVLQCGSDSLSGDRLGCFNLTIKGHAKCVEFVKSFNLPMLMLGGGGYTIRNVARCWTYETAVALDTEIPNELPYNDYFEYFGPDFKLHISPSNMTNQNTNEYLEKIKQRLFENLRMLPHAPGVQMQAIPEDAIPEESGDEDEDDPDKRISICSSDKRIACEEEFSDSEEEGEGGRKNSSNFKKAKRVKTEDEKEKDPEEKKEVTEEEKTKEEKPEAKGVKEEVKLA

[3] = plasma, oral AUC to IV AUC, dose adjusted

Sequence of hERG (Q12809 whole entry): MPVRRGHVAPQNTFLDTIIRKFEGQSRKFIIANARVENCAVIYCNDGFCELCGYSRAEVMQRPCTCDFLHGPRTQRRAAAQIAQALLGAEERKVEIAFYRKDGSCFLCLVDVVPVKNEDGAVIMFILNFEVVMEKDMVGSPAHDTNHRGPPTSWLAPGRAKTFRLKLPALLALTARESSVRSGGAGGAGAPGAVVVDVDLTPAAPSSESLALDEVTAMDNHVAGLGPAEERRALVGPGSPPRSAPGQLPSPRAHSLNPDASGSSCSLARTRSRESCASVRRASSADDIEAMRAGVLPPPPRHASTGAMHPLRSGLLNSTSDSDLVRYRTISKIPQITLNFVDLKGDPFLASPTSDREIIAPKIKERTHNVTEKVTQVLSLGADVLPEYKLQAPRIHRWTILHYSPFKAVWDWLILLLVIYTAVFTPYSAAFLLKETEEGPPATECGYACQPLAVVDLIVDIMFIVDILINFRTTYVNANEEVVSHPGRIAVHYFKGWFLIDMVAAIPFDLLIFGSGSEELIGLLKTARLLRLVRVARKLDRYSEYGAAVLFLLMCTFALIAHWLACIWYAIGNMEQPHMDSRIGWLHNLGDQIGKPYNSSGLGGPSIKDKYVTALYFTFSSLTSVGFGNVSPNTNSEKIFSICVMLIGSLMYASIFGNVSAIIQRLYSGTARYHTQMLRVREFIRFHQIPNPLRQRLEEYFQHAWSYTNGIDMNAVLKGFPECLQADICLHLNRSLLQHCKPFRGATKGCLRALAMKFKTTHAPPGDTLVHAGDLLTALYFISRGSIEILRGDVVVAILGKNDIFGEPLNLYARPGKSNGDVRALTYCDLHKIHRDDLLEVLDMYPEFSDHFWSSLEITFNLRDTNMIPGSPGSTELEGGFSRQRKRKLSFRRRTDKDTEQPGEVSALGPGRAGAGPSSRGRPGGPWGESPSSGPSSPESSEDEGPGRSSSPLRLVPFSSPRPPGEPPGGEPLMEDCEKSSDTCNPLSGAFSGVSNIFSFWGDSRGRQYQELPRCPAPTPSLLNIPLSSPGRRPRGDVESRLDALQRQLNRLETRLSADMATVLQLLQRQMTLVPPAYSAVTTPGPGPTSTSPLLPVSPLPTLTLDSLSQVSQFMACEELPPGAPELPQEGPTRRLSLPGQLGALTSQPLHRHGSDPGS

| Structure (SMILES) | IC50 (HDAC3) | IC50 (HDAC2) | IC50 (HDAC1) | further results |
| --- | --- | --- | --- | --- |
| Nc1ccccc1NC(=O)c1ccc2nc(N3CCNCC3)ccc2c1 [Compound 001] | – | – | – | IC50 (hERG; 34 °C, tail current): > 30 µM |
| Nc1ccc(-c2ccccc2)cc1NC(=O)c1ccc(N2CCNCC2)nc1 [Compound 006] | – | – | – | IC50 [1]: > 10 µM; IC50 (hERG; 34 °C, tail current): 5.1 µM |
| Nc1ccc(-c2cccs2)cc1NC(=O)c1ccc(N2CCNCC2)nc1 [Compound 007] | – | – | – | IC50 [1]: > 10 µM; IC50 (hERG; 34 °C, tail current): 8.6 µM |
| Nc1ccccc1NC(=O)c1cc2ccc(N3CCNCC3)cc2cn1 [Compound 021] | – | – | – | bioavailability [2, 3]: 89.8%; IV clearance ([2]; IV 1 mg/kg, plasma): 94.3 mL/min/kg; AUC ([2]; PO 5 mg/kg, plasma): 763 ng·h/mL; Cmax ([2]; PO 5 mg/kg, plasma): 68 ng/mL; half-life ([2]; PO 5 mg/kg, plasma): 192 min; IC50 (hERG; 34 °C, tail current): 4.2 µM |
| Nc1ccc(-c2ccoc2)cc1NC(=O)c1cnc2cc(N3CCNCC3)ccc2c1 [Compound 025] | – | – | – | IC50 [1]: > 10 µM |
| Nc1ccc(-c2ccncc2)cc1NC(=O)c1cnc2cc(N3CCNCC3)ccc2c1 [Compound 026] | – | – | – | IC50 (hERG; 34 °C, tail current): > 100 µM |
| CN1CCN(c2ccc3cc(C(=O)Nc4cc(-c5ccco5)ccc4N)ncc3c2)CC1 [Compound 029] | – | – | – | IC50 (hERG; 34 °C, tail current): 5.2 µM |
| CN1CCN(c2ncc(C(=O)Nc3cc(-c4cccs4)ccc3N)s2)CC1 [Compound 030] | – | – | – | IV Clr. ([2]; IV 1 mg/kg, plasma): 0.48 L/h/kg; PO AUC ([2]; PO 5 mg/kg, plasma): 15260 ng·h/mL; PO Cmax ([2]; PO 5 mg/kg, plasma): 944 ng/mL; PO T½ ([2]; PO 5 mg/kg, plasma): 12.8 h; F % ([2]; oral AUC to IV AUC, dose adjusted): 170%; IC50 [1]: > 10 µM |
| Nc1ccc(-c2ccc(F)cc2)cc1NC(=O)c1ccc(N2CCNCC2)nc1 [Compound 036] | 10 to 500 nM | 10 to 500 nM | < 10 nM | bioavailability [2, 3]: 69.1%; IV clearance ([2]; IV 1 mg/kg, plasma): 7 mL/min/kg; AUC ([2]; PO 5 mg/kg, plasma): 7280 ng·h/mL; Cmax ([2]; PO 5 mg/kg, plasma): 500 ng/mL; half-life ([2]; PO 5 mg/kg, plasma): 438 min |
| Nc1ccc(-c2ccc(F)cc2)cc1NC(=O)c1ccc(N2CCNCC2)cn1 [Compound 038] | 10 to 500 nM | 10 to 500 nM | < 10 nM | IC50 (hERG; unit inferred): 2.5 µM |
| Nc1ccc(-c2cccs2)cc1NC(=O)c1cnc(N2CCNCC2)cn1 [Compound 040] | 10 to 500 nM | < 10 nM | < 10 nM | bioavailability [2, 3]: 151%; IV clearance ([2]; IV 1 mg/kg, plasma): 26.7 mL/min/kg; AUC ([2]; PO 5 mg/kg, plasma): 3340 ng·h/mL; Cmax ([2]; PO 5 mg/kg, plasma): 211 ng/mL; half-life ([2]; PO 5 mg/kg, plasma): 1000 min |
| CN1CCN(c2ccc(C(=O)Nc3cc(-c4ccccc4)ccc3N)cn2)CC1 [Compound 070] | 10 to 500 nM | 10 to 500 nM | < 10 nM | – |
| CN1CCN(c2ccc(C(=O)Nc3cc(-c4ccoc4)ccc3N)cn2)CC1 [Compound 075] | 10 to 500 nM | 10 to 500 nM | < 10 nM | – |
| Nc1ccc(-c2ccccc2F)cc1NC(=O)c1ccc(N2CCNCC2)nc1 [Compound 076] | 10 to 500 nM | 10 to 500 nM | < 10 nM | – |
| Nc1ccc(-c2cccc(F)c2)cc1NC(=O)c1ccc(N2CCNCC2)nc1 [Compound 077] | 10 to 500 nM | 10 to 500 nM | 10 to 500 nM | – |
| CN1CCN(c2ccc(C(=O)Nc3cc(-c4ccccc4)ccc3N)nc2)CC1 [Compound 079] | 10 to 500 nM | 10 to 500 nM | < 10 nM | – |
| CN1CCN(c2ccc(C(=O)Nc3cc(-c4ccco4)ccc3N)nc2)CC1 [Compound 082] | 10 to 500 nM | 10 to 500 nM | < 10 nM | – |
| CN1CCN(c2ccc(C(=O)Nc3cc(-c4ccoc4)ccc3N)nc2)CC1 [Compound 083] | 10 to 500 nM | 10 to 500 nM | < 10 nM | – |
| Nc1ccc(-c2cc(F)cc(F)c2)cc1NC(=O)c1ccc(N2CCNCC2)cn1 [Compound 084] | > 500 nM | > 500 nM | > 500 nM | – |
| Nc1ccc(-c2ccoc2)cc1NC(=O)c1cnc(N2CCNCC2)cn1 [Compound 088] | 10 to 500 nM | 10 to 500 nM | < 10 nM | – |

Now from value to compound, other results behind:

| IC50 (HDAC3) | IC50 (HDAC2) | IC50 (HDAC1) | Structure (SMILES) | further results |
| --- | --- | --- | --- | --- |
| 10 to 500 nM | 10 to 500 nM | < 10 nM | Nc1ccc(-c2ccc(F)cc2)cc1NC(=O)c1ccc2nc(N3CCNCC3)ccc2c1 [Compound 035] | bioavailability [2, 3]: 70.5%; IV clearance ([2]; IV 1 mg/kg, plasma): 2.83 mL/min/kg; AUC ([2]; PO 5 mg/kg, plasma): 20200 ng·h/mL; Cmax ([2]; PO 5 mg/kg, plasma): 1870 ng/mL; half-life ([2]; PO 5 mg/kg, plasma): 264 min |
| 10 to 500 nM | 10 to 500 nM | < 10 nM | Nc1ccc(-c2ccc(F)cc2)cc1NC(=O)c1ccc(N2CCNCC2)s1 [Compound 068] | – |
| > 500 nM | 10 to 500 nM | 10 to 500 nM | Nc1ccc(-c2ccccc2)cc1NC(=O)c1cc(N2CCNCC2)cs1 [Compound 069] | – |
| 10 to 500 nM | 10 to 500 nM | 10 to 500 nM | Nc1ccc(-c2cccnc2)cc1NC(=O)c1ccc(N2CCNCC2)nc1 [Compound 072] | – |
| > 500 nM | 10 to 500 nM | 10 to 500 nM | Nc1ccc(-c2ccccn2)cc1NC(=O)c1ccc(N2CCNCC2)nc1 [Compound 073] | – |
| 10 to 500 nM | 10 to 500 nM | < 10 nM | CN1CCN(c2ccc(C(=O)Nc3cc(-c4ccco4)ccc3N)cn2)CC1 [Compound 074] | – |
| > 500 nM | 10 to 500 nM | > 500 nM | Nc1ccc(-c2cc(F)cc(F)c2)cc1NC(=O)c1ccc(N2CCNCC2)nc1 [Compound 078] | – |
| 10 to 500 nM | < 10 nM | < 10 nM | CN1CCN(c2ccc(C(=O)Nc3cc(-c4cccs4)ccc3N)nc2)CC1 [Compound 080] | – |
| > 500 nM | 10 to 500 nM | 10 to 500 nM | Nc1ccc(-c2ccccn2)cc1NC(=O)c1ccc(N2CCNCC2)cn1 [Compound 081] | – |
| 10 to 500 nM | 10 to 500 nM | < 10 nM | Nc1ccc(-c2ccccc2)cc1NC(=O)c1cnc(N2CCNCC2)cn1 [Compound 085] | – |
| 10 to 500 nM | < 10 nM | < 10 nM | CN1CCN(c2cnc(C(=O)Nc3cc(-c4cccs4)ccc3N)cn2)CC1 [Compound 086] | – |
| 10 to 500 nM | 10 to 500 nM | < 10 nM | Nc1ccc(-c2ccco2)cc1NC(=O)c1cnc(N2CCNCC2)cn1 [Compound 087] | – |
| 10 to 500 nM | 10 to 500 nM | 10 to 500 nM | Nc1ccc(-c2ccncc2)cc1NC(=O)c1cnc(N2CCNCC2)cn1 [Compound 089] | – |
| 10 to 500 nM | 10 to 500 nM | < 10 nM | Nc1ccc(-c2ccc(F)cc2)cc1NC(=O)c1cnc(N2CCNCC2)cn1 [Compound 090] | – |
